This passage reports fold induction results from PubChem BioAssay AID651948 (The Scripps Research Institute Molecular Screening Center, 2012).

In the assay the target is Heat shock 70 kDa protein 1A (Homo sapiens) (UniProt P0DMV8). Kind of assay: PubChem AID 651948. As to conditions: HeLa Hsp70 protein level, western blot, 8 h; at 10 µM; active compounds read high. Background: Immunoblotting shows a protein as a band on a membrane.
Heat shock 70 kDa protein 1A (Homo sapiens), sequence (P0DMV8 whole entry, looked up): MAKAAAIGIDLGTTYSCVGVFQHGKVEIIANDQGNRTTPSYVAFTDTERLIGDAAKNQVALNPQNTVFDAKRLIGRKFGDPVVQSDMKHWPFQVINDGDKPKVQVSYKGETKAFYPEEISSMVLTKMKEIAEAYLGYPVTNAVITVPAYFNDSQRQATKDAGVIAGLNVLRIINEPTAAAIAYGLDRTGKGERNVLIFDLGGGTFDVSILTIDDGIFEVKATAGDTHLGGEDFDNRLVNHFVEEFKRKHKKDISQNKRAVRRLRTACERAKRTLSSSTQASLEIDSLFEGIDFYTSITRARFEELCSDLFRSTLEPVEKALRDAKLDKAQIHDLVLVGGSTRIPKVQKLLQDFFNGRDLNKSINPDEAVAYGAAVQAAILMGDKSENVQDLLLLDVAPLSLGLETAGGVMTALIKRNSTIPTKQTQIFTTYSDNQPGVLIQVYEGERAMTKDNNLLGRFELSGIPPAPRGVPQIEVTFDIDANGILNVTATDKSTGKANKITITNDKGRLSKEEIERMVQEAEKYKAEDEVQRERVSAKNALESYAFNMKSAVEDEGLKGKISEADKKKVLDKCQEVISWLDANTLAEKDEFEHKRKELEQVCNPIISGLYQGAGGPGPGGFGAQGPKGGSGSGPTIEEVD

As a reminder, the fold induction is the signal under treatment as a multiple of the control signal. As to `COc1ccc(/C=C/C=C2C(=O)NC(=O)NC2=O)cc1`, the fold induction is 1.8.
